Test results as given in BigSolDB 2.1.

CC(C)(C)c1cc(CCC(=O)NCCCCCCNC(=O)CCc2cc(C(C)(C)C)c(O)c(C(C)(C)C)c2)cc(C(C)(C)C)c1O
solubility (mole fraction)
Conditions | 283.15 K | 288.15 K | 293.15 K | 298.15 K | 303.15 K | 308.15 K | 313.15 K | 318.15 K | 323.15 K
in acetone | 0.00214 | 0.00257 | 0.00297 | 0.00328 | 0.00419 | 0.00585 | 0.00747 | 0.01 | 0.0152
in ethanol | 0.00775 | 0.00841 | 0.00982 | 0.011 | 0.0126 | 0.0148 | 0.0178 | 0.0218 | 0.0264
in ethyl acetate | 0.000614 | 0.000852 | 0.00109 | 0.00123 | 0.00155 | 0.00192 | 0.00258 | 0.00376 | 0.00527
in ethyl formate | 0.00151 | 0.00205 | 0.00207 | 0.00254 | 0.00309 | 0.00406 | 0.00501 | 0.00622 | 0.00879
in isopropanol | 0.00326 | 0.00345 | 0.004 | 0.00459 | 0.00552 | 0.00688 | 0.00872 | 0.0107 | 0.0129
in methanol | 0.00197 | 0.0023 | 0.00263 | 0.0032 | 0.00388 | 0.00506 | 0.00666 | 0.00874 | 0.012
in methyl acetate | 0.000498 | 0.000804 | 0.000846 | 0.00107 | 0.00137 | 0.00185 | 0.00239 | 0.00359 | 0.00538
in n-propanol | 0.00711 | 0.00807 | 0.00974 | 0.0116 | 0.0128 | 0.0153 | 0.0183 | 0.0223 | 0.0254
